The values below come from US12653800B2, “Small molecule inhibitors of TLR2 signaling” (University of Maryland, Baltimore, priority 2015, dated 2026).

Some results are limits rather than exact numbers.

The target in series [1] is TLR2/6 (Homo sapiens, UniProt O60603). In words: P2C-induced IL-8 mRNA (qRT-PCR) in HEK-TLR2 stable transfectants. Set-up: expressed in transfected cells. The class given is cell-based. As to conditions: 100 μM compound, 1 hr pretreatment, P2C 5 ng/mL 1 hr, HEK-TLR2 cells; read-out: decrease of P2C-induced IL-8 mRNA.
The conditions of series [2]: in vivo; stated for o-vanillin, reported previously for its isomer vanillin (Beaudry 2010); cited from earlier work.
Series [3] concerns the target TLR2/1 (Mus musculus, UniProt Q9QUN7). In words: Cytokine mRNA/protein in murine peritoneal macrophages stimulated with TLR2/1 agonists (P3C, LTA SA). The class given is cell-based. As to conditions: murine macrophages, 25 μM or 50 μM, P3C 50 ng/mL 1 hr.

Chain of TLR2/6 (O60603 21-784): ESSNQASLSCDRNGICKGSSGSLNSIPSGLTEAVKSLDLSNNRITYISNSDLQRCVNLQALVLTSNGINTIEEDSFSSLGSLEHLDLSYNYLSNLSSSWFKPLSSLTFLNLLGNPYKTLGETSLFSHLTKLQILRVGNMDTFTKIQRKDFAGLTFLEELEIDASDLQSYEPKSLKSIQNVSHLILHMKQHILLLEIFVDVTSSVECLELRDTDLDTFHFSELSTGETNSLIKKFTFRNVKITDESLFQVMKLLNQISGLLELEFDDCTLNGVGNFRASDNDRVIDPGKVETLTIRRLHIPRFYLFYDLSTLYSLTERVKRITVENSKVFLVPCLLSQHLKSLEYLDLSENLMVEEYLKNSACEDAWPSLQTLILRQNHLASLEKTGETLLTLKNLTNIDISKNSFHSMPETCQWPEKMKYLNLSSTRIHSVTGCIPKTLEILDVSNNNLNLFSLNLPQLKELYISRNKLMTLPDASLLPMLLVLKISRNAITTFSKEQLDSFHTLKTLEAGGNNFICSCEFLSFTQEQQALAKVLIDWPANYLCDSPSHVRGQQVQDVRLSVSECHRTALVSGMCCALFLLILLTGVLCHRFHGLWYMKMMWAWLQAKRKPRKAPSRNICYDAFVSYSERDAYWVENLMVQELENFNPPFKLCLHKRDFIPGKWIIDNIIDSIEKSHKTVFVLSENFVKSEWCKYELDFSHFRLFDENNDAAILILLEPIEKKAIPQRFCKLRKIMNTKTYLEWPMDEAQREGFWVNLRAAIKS
Chain of TLR2/1 (Q9QUN7 25-784): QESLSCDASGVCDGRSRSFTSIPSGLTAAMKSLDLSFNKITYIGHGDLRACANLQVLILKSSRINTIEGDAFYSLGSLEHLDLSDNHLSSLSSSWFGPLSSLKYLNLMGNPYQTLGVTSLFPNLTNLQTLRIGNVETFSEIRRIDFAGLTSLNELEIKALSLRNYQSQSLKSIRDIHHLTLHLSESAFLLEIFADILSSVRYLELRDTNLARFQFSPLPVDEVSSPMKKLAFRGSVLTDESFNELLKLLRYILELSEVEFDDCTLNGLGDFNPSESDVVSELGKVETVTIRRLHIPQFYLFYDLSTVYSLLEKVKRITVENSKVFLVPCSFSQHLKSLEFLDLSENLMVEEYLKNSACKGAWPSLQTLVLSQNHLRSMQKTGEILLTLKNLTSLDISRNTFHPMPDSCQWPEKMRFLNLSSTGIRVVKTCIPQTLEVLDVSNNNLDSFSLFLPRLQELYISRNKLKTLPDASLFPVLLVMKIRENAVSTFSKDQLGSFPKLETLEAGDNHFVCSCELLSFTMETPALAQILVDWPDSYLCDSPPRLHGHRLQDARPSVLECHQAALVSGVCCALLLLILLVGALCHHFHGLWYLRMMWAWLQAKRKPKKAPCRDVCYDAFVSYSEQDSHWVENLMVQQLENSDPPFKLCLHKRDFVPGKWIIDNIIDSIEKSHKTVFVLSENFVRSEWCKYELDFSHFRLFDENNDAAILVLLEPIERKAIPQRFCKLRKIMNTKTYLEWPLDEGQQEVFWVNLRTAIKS

Regarding `Cc1ccc(S(=O)(=O)NCCC(=O)NCCc2ccccc2)cc1` [Compound C33], in series [1], the inhibition at 100 µM is at least 50%. Turning to `CCN(CCCNc1nc(=S)[nH]c2ccccc12)c1ccccc1` [Compound C32], in series [1], the inhibition at 100 µM is at least 50%. The same measure, in the same setting: the same measure for `O=C(CCC1N=C2c3ccccc3NC(=S)N2C1=O)NCc1ccco1` (centres unmarked) [Compound C30]: at least 50%; for `CN(CC(=O)Nc1ccc2c(c1)OCO2)S(=O)(=O)c1cccs1` [Compound C24]: at least 50%; for `COc1ccc(-c2nc(CSCC(=O)NCc3cccnc3)c(C)o2)cc1OC` [Compound C26]: at least 50%.

For `COc1cc(C=O)ccc1O` [vanillin, reference compound], the bioavailability result in series [2] is reported as “poor bioavailability”. `Cc1c(N)cccc1C(=O)O` [Compound C29R, 3-amino-2-methylbenzoic acid, reference compound]: the “TLR2/1-induced TNF-α gene expression” value in series [3] is “but not C29R, dose-dependently inhibited”. Turning to `COc1cccc(-c2nc(CSCC(=O)NCCN3CCOCC3)c(C)o2)c1` [Compound C25], the inhibition at 100 µM in series [1] was at least 50%.
